How the values were obtained:
gut microbiome [1] = assay: Non pH-controlled anaerobic faecal cultures, gas production; format: cell-based; details: 6 donors, FIG. 1
Experimental: Non pH-controlled, anaerobic, faecal cultures were investigated to evaluate the rate of gas production and cumulative gas production over 24 h in the presence of each test substrate.
(§1) All carbohydrates were tested in parallel, using the same faecal sample from a healthy donor. Fermentations were repeated using the faecal samples of each of 6 donors. Faeces in the absence of test substrate were used as the negative control in each run.

gut microbiome [2] = assay: pH-controlled anaerobic faecal cultures, organic acid production; format: cell-based; details: FIG. 3
Experimental: pH-controlled, anaerobic, faecal cultures were carried out to evaluate the impact of each test carbohydrate on gut microbiome composition and activity (organic acid production). The test carbohydrates were as follows: Inulin, Fructooligosaccharides (FOS), Xylooligosaccharides (XOS), gentiooligosaccharides (GeOS) and cellobiose.
as §1

Structure (SMILES): O=C[C@H](O)[C@@H](O)[C@H](O[C@@H]1O[C@H](CO)[C@@H](O)[C@H](O)[C@H]1O)[C@H](O)CO [Cellobiose, cellobiose]
- rate of gas production (gut microbiome [1]): significantly higher compared to all test substrates
- lactate production / accumulation (gut microbiome [2]): high levels

From patent US20260014178A1, “COMPOSITIONS AND USES THEREOF” (Optibiotix Limited, priority 2022, published 2026)
